Earlier results on three substances are cited in patent publication US20140072530A1, “TREATMENT OF HIV” (priority 2006, published 2014).

The subject of data set [1] is whole blood samples stimulated with LPS. The note with it: LPS-stimulated whole blood of HIV patients; concentration-dependent.
The test system of data set [2] is normal peripheral blood mononuclear cells (PBMC). The note with it: induced by HIV envelope glycoprotein gp 120, normal PBMC.

Take “ACTH (1-24): Melanocortin peptide, fragment 1-24 of adrenocorticotropic hormone (SYSMEHFRWGKPVGKKRRPVKVYP; Corticotropin; UniProt P01189 138-161, looked up, fragment)”: in data set [1], the “production of IL-1” value was “reduced” and the “production of TNF-α” value was “reduced”.
Consider “α-melanocyte-stimulating hormone [α-MSH (1-13), α-melanocyte-stimulating hormone [α-MSH (1-13)]]”, for which, in data set [1], the “production of IL-1” value is “reduced” and the “production of TNF-α” value was “reduced”. Besides, in data set [2], the “production of IL-1β” value was “inhibit” and the “production of TNF-α” value was “inhibit”.
In the case of “adrenocorticotropic hormone [ACTH (1-39] (SYSMEHFRWGKPVGKKRRPVKVYPNGAEDESAEAFPLEF; Corticotropin; UniProt P01189 138-176, looked up) [ACTH (1-39), Proopiomelanocortin-derived melanocortin peptide]”, in data set [1], the “production of IL-1” value is “reduced” and the “production of TNF-α” value was “reduced”.
